Laboratory results published in ChEMBL document CHEMBL5113550, “Optimization of Pyrimidine Compounds as Potent JAK1 Inhibitors and the Discovery of R507 as a Clinical Candidate” (ACS Med Chem Lett, 2022).
One block for each molecule: values may come before it.

Columns and labels:
Cytochrome P450 3A4 [1] = biological target: T1, Cytochrome P450 3A4 (Homo sapiens, UniProt P08684); assay: Inhibition of CYP3A4 (unknown origin) in absence of NADPH; assay type: ADME
[2] = biological target: T2, Tyrosine-protein kinase JAK2 (Homo sapiens, UniProt O60674); assay: Inhibition of JAK2 signaling pathway in human CHEP cells assessed as inhibition of EPO-induced cell survival preincubated for 1 hr followed by EPO addition and measured after 48 hrs by CellTiter-Glo luminescent assay; assay type: toxicity, cell-based
T2 sequence (O60674 whole entry): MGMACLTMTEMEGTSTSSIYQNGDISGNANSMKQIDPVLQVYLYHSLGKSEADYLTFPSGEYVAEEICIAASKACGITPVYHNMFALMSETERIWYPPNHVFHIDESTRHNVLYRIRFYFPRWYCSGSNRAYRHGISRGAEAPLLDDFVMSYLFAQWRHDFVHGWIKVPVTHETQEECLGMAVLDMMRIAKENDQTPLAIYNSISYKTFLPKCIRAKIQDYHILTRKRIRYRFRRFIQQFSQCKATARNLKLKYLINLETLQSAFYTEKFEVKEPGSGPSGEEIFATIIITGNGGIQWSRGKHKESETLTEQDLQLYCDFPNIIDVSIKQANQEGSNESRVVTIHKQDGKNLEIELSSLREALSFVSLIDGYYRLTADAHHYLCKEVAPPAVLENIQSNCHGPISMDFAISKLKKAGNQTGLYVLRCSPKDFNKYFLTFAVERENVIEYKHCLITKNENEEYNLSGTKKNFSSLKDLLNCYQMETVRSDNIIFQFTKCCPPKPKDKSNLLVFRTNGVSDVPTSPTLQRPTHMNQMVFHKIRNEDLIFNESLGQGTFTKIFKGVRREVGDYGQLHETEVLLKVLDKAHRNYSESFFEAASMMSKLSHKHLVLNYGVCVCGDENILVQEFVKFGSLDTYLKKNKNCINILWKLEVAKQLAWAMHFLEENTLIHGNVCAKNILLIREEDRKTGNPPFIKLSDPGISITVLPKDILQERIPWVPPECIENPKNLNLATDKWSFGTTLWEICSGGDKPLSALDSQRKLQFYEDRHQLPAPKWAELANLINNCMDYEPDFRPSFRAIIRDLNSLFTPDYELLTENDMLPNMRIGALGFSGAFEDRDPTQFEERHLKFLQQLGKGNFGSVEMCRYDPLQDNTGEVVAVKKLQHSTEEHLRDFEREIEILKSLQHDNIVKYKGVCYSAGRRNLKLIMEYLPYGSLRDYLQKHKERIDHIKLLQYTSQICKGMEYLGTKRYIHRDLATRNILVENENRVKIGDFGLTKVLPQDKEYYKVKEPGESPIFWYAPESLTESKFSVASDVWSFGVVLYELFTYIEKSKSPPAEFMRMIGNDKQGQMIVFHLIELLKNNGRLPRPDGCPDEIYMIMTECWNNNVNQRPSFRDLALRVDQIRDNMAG

[3] = Inhibition of IL-2 stimulated IFN-gamma production in BALB/c mouse at 5 mg/kg, po pretreated for 30 mins followed by IL-2 stimulation and measured after 4 hrs by ELISA; assay type: functional; details: time 4.5 hrs
[4] = Inhibition of IL-2 stimulated IFN-gamma production in BALB/c mouse at 40 mg/kg, po pretreated for 30 mins followed by IL-2 stimulation and measured after 4 hrs by ELISA; assay type: functional; details: time 4.5 hrs
Cytochrome P450 3A4 [5] = biological target: T1, Cytochrome P450 3A4; assay: Inhibition of CYP3A4 (unknown origin) in presence of NADPH; assay type: ADME
[6] = biological target: Tyrosine-protein kinase SYK (Homo sapiens, UniProt P43405); assay: Inhibition of SYK (unknown origin) assessed as reduction of IgM-stimulated ERK phosphorylation by Cell-based assay
[7] = biological target: T2, Tyrosine-protein kinase JAK2; assay: Inhibition of JAK2 signaling pathway in human UKE-1 cells assessed as reduction of cell proliferation; assay type: toxicity, cell-based
JAK3/JAK1 [8] = biological target: T3, JAK3/JAK1 (Homo sapiens, UniProt P23458+P52333); assay: Inhibition of JAK1/JAK3 in human primary T-cells assessed as reduction of IL-2 stimulated STAT5 phosphorylation preincubated for 1 hr followed by IL-2 stimulation for 15 mins by FACS method; assay type: cell-based, T-cell
T3 sequence (P23458 whole entry, one chain of several, the tested form may be a part): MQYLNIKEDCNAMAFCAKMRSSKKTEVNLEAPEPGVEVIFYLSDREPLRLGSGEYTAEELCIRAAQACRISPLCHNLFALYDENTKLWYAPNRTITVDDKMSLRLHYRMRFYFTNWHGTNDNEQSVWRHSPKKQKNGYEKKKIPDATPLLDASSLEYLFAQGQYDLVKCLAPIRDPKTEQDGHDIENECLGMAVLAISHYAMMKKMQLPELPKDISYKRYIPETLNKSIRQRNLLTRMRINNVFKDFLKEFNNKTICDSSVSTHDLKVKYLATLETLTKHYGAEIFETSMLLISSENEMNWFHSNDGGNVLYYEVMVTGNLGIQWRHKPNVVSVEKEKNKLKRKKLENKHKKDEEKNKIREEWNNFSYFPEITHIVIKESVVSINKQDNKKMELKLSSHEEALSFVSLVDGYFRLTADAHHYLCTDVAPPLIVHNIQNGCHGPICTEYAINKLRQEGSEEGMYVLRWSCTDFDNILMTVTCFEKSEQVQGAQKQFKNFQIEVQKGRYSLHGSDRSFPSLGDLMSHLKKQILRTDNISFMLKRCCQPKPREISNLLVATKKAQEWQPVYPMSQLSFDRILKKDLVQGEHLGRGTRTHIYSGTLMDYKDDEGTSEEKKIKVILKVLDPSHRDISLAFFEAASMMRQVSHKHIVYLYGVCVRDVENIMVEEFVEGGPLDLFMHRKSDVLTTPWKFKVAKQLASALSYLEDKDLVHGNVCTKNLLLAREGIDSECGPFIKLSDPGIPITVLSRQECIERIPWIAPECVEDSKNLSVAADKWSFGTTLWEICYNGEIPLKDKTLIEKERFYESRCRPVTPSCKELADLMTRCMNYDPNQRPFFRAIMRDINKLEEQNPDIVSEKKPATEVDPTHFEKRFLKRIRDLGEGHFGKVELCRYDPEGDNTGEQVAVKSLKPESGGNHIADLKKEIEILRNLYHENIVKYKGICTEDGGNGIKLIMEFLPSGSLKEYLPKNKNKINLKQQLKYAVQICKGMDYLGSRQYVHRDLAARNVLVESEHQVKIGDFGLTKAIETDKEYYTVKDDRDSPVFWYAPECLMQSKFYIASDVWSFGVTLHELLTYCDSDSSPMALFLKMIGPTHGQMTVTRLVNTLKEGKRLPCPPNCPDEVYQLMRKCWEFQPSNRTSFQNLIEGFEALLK

[9] = biological target: Non-receptor tyrosine-protein kinase TYK2 (Homo sapiens, UniProt P29597); assay: Inhibition of human recombinant N-terminal GST-tagged TYK2 (833 to 1187 residues) expressed in baculovirus expression system by Z'-lyte assay
Chain of Non-receptor tyrosine-protein kinase TYK2 (P29597 whole entry, the tested form may be a part): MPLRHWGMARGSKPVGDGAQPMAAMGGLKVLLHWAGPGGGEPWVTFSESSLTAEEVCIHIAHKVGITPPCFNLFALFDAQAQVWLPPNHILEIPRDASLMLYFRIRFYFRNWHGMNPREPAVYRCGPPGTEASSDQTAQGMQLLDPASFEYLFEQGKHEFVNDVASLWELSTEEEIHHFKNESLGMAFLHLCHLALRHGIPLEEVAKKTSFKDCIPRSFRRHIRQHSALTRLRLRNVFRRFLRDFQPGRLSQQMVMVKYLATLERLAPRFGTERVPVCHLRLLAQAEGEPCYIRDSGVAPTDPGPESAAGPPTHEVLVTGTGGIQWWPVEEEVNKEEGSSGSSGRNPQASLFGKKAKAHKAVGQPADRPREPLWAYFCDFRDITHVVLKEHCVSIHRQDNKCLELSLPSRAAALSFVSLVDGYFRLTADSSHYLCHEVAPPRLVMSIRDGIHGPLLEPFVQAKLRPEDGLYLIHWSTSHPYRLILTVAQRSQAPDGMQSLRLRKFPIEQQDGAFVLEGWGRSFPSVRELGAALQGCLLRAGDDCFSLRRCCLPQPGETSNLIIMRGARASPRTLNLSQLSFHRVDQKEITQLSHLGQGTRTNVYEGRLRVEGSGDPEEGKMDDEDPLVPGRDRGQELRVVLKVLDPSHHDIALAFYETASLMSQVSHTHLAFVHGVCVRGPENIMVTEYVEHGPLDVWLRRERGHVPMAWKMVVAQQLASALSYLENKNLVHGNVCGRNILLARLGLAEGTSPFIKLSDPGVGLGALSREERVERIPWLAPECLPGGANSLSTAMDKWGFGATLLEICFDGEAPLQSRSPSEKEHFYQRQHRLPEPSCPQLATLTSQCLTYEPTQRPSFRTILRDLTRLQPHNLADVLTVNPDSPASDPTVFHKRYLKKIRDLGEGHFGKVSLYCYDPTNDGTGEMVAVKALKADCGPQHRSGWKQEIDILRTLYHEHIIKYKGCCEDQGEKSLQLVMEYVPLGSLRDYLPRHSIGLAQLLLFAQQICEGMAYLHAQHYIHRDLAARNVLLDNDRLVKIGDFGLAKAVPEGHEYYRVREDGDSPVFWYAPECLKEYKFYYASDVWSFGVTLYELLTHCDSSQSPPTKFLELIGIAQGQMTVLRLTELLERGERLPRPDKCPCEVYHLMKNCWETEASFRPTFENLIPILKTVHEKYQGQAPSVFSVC

JAK3/JAK1 [10] = biological target: T3, JAK3/JAK1; assay: Inhibition of JAK1/JAK3 signaling pathway in human whole blood assessed as reduction of IL-2 induced STAT5 phosphorylation; assay type: tissue-based
JAK2/JAK1 = JAK2/JAK1 (Homo sapiens, UniProt O60674+P23458); assay: Inhibition of JAK1/JAK2 signaling pathway in human U-937 cells assessed as reduction of IFN-gamma induced ICAM1 expression; assay type: cell-based
Chain of JAK2/JAK1 (P23458 whole entry): as the sequence (P23458 whole entry, one chain of several, the tested form may be a part) above
Chain of JAK2/JAK1 (O60674 whole entry): as the sequence (O60674 whole entry) above

Cytochrome P450 1A2 = biological target: T4, Cytochrome P450 1A2 (Homo sapiens, UniProt P05177); assay: Inhibition of CYP1A2 (unknown origin); assay type: ADME
T4 sequence (P05177 whole entry): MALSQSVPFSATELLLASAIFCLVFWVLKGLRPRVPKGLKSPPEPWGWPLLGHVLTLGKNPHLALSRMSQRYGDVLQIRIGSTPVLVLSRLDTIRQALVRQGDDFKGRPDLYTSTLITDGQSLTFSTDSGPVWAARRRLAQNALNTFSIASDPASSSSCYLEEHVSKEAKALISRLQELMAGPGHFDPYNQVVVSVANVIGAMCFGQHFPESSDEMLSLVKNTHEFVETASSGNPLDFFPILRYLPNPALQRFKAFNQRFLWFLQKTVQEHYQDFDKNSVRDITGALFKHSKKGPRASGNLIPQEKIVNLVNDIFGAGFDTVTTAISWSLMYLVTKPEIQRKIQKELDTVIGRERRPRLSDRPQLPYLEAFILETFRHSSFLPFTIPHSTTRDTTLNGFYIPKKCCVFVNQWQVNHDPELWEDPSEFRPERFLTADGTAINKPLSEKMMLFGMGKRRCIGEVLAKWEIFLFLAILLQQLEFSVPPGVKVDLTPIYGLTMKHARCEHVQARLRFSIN

[11] = biological target: T2, Tyrosine-protein kinase JAK2; assay: Inhibition of human recombinant GST-tagged JAK2 catalytic domain (809 to 1153 residues) expressed in baculovirus expression system by Z'-lyte assay; assay type: toxicity
[12] = Inhibition of IL-2 stimulated IFN-gamma production in BALB/c mouse at 20 mg/kg, po pretreated for 30 mins followed by IL-2 stimulation and measured after 4 hrs by ELISA; assay type: functional; details: time 4.5 hrs
[13] = biological target: T5, Tyrosine-protein kinase JAK3 (Homo sapiens, UniProt P52333); assay: Inhibition of human recombinant GST-tagged JAK3 catalytic domain (781 to 1124 residues) expressed in baculovirus expression system by Z'-lyte assay
T5 sequence (P52333 whole entry): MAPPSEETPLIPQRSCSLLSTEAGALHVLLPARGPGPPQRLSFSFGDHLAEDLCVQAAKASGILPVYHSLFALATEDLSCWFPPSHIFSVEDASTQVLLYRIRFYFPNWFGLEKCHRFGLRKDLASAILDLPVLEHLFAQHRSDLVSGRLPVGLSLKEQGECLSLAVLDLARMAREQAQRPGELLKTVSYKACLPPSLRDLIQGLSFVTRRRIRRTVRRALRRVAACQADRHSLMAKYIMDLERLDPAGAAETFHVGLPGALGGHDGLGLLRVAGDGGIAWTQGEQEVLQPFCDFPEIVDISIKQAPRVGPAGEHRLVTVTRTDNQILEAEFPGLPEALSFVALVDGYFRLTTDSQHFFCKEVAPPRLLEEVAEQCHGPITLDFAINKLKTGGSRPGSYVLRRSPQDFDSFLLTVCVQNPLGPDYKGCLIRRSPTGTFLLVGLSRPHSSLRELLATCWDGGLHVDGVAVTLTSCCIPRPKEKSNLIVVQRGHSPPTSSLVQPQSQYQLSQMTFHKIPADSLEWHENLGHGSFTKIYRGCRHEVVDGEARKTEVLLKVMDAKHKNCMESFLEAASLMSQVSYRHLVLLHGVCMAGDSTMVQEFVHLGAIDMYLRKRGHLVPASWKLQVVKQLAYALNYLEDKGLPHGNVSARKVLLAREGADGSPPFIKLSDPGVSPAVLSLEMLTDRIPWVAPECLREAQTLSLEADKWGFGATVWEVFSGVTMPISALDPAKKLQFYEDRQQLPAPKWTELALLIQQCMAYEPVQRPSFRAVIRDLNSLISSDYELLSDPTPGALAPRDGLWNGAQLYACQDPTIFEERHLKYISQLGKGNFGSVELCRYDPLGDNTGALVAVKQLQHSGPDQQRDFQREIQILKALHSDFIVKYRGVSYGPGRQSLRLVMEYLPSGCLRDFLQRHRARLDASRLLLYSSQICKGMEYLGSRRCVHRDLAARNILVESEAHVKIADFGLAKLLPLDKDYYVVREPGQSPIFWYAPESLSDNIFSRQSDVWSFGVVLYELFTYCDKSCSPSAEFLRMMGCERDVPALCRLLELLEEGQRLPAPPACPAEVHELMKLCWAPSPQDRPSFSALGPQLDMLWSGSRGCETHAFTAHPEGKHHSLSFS

JAK2/TYK2 = JAK2/TYK2 (Homo sapiens, UniProt O60674+P29597); assay: Inhibition of JAK2/TYK2 signaling pathway in human primary T-cells assessed as reduction of IL-12 induced STAT4 phosphorylation; assay type: cell-based, T-cell
Chain of JAK2/TYK2 (O60674 whole entry): as the sequence (O60674 whole entry) above
Chain of JAK2/TYK2 (P29597 whole entry): as the sequence (P29597 whole entry, the tested form may be a part) above

JAK3/JAK1 [14] = biological target: T3, JAK3/JAK1; assay: Inhibition of JAK1/JAK3 signaling pathway in human primary T-cells assessed as reduction of IL-2 induced cell proliferation; assay type: cell-based
JAK1/TYK2 = JAK1/TYK2 (Homo sapiens, UniProt P23458+P29597); assay: Inhibition of JAK1/TYK2 signaling pathway in human primary T-cells assessed as reduction of IFN-alpha induced STAT1 phosphorylation; assay type: cell-based, T-cell
Chain of JAK1/TYK2 (P23458 whole entry): as the sequence (P23458 whole entry, one chain of several, the tested form may be a part) above
Chain of JAK1/TYK2 (P29597 whole entry): as the sequence (P29597 whole entry, the tested form may be a part) above

[15] = Inhibition of IL-2 stimulated IFN-gamma production in BALB/c mouse at 2.5 mg/kg, po pretreated for 30 mins followed by IL-2 stimulation and measured after 4 hrs by ELISA; assay type: functional; details: time 4.5 hrs
[16] = Inhibition of IL-2 stimulated IFN-gamma production in BALB/c mouse at 10 mg/kg, po pretreated for 30 mins followed by IL-2 stimulation and measured after 4 hrs by ELISA; assay type: functional; details: time 4.5 hrs
[17] = biological target: Tyrosine-protein kinase JAK1 (Homo sapiens, UniProt P23458); assay: Inhibition of human recombinant GST-tagged JAK1 catalytic domain (866 to 1154 residues) expressed in baculovirus expression system by Z'-lyte assay
Chain of Tyrosine-protein kinase JAK1 (P23458 whole entry, the tested form may be a part): as the sequence (P23458 whole entry, one chain of several, the tested form may be a part) above

[18] = Oral bioavailability in Sprague-Dawley rat 5 mg/kg; assay type: ADME, organism-based; details: in vivo
[19] = Clearance in Sprague-Dawley rat 1 mg/kg, iv; assay type: ADME, organism-based; details: in vivo
Rattus norvegicus [20] = assay: Antiarthritic activity against collagen-induced arthritis Lewis rat model assessed as reduction in disease severity by measuring inhibition of hind limb clinical score at 100 mg/kg, po qd measured upto 20 days; assay type: functional; details: 480 h, time <= 20 day
[21] = AUC in Sprague-Dawley rat 5 mg/kg, po; assay type: ADME, organism-based; design: dose 5 mg/kg, route po; details: in vivo
Rattus norvegicus [22] = assay: Antiarthritic activity against collagen-induced arthritis Lewis rat model assessed as reduction in disease severity by measuring inhibition of hind limb clinical score at 50 mg/kg, po bid measured upto 20 days; assay type: functional; details: 480 h, time <= 20 day
Rattus norvegicus [23] = assay: Antiarthritic activity against collagen-induced arthritis Lewis rat model assessed as reduction in disease severity by measuring inhibition of hind limb clinical score at 25 mg/kg, po bid measured upto 20 days; assay type: functional; details: 480 h, time <= 20 day

T1 sequence (P08684 whole entry): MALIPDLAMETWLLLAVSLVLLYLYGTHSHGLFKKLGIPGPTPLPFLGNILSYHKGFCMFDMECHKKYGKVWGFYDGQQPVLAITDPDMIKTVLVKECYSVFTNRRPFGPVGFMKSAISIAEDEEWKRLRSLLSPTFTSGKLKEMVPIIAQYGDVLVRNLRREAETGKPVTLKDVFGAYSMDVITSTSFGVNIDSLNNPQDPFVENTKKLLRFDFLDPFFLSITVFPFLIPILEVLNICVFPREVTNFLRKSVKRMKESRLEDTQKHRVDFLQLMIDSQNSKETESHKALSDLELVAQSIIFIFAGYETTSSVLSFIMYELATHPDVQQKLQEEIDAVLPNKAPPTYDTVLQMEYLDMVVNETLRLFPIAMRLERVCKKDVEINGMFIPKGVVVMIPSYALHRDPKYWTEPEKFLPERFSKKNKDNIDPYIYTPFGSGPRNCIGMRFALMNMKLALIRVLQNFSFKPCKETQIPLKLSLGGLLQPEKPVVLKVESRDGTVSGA

IC50 (Cytochrome P450 3A4 [1]): > 10000 nM
IC50 (Cytochrome P450 3A4 [5]): 3000 nM
Structure (SMILES): COc1cc(Nc2ncc(C)c(Nc3ccc4oc(=O)[nH]c4c3)n2)cc(C(F)F)c1
IC50 [2]: 173 nM
inhibition in vivo at 5 mg/kg [3]: 66%
inhibition in vivo at 40 mg/kg [4]: 92%

IC50 (Cytochrome P450 3A4 [1]): > 10000 nM
IC50 (Cytochrome P450 3A4 [5]): 8000 nM
Structure (SMILES): COc1cc(CF)cc(Nc2ncc(C)c(Nc3ccc4oc(=O)[nH]c4c3)n2)c1
IC50 [2]: 170 nM

IC50 (JAK3/JAK1 [8]): 20 nM
IC50 [9]: 12 nM
IC50 (JAK3/JAK1 [10]): 451 nM
IC50 (JAK2/JAK1): 417 nM
IC50 (Cytochrome P450 3A4 [1]): > 10000 nM
Ki (Cytochrome P450 1A2): 1000 nM
IC50 [13]: 923 nM
IC50 (JAK2/TYK2): 1190 nM
IC50 (JAK3/JAK1 [14]): 20 nM
IC50 (JAK1/TYK2): 8 nM
IC50 [17]: 2.1 nM
bioavailability [18]: 28%
clearance [19]: 47 mL/min/kg
IC50 (Cytochrome P450 3A4 [5]): > 10000 nM
Structure (SMILES): COc1cc(Nc2ncc(C)c(Nc3ccc4oc(=O)[nH]c4c3)n2)cc(C)c1F [IFIDANCITINIB]
IC50 [7]: 915 nM
IC50 [2]: 490 nM
IC50 [11]: 12 nM
inhibition in vivo at 20 mg/kg [12]: 94%
inhibition in vivo at 2.5 mg/kg [15]: 8%
inhibition in vivo at 5 mg/kg [3]: 43%
inhibition in vivo at 40 mg/kg [4]: 92%
inhibition in vivo at 10 mg/kg [16]: 75%

IC50 [6]: 5000 nM
Structure (SMILES): Cc1cnc(Nc2cccc(S(N)(=O)=O)c2)nc1Nc1ccc2oc(=O)[nH]c2c1
inhibition in vivo at 40 mg/kg [4]: 30%

IC50 (Cytochrome P450 3A4 [1]): > 10000 nM
IC50 (Cytochrome P450 3A4 [5]): > 10000 nM
Structure (SMILES): COc1cc(C)cc(Nc2ncc(C)c(Nc3ccc4oc(=O)[nH]c4c3)n2)c1
IC50 [2]: 354 nM
inhibition in vivo at 5 mg/kg [3]: 55%
inhibition in vivo at 40 mg/kg [4]: 91%

Continued, molecule first:

Structure (SMILES): Cc1cnc(Nc2cccc(S(N)(=O)=O)c2)nc1Nc1ccc2c(c1)NC(=O)CO2
IC50 [6]: 700 nM

Structure (SMILES): COc1cc(Nc2ncc(C)c(Nc3ccc4oc(=O)[nH]c4c3)n2)cc(OC)c1
IC50 [2]: 132 nM

Structure (SMILES): Cc1cnc(Nc2ccc(C#N)cc2)nc1Nc1ccc2oc(=O)[nH]c2c1
inhibition in vivo at 40 mg/kg [4]: 0%

Structure (SMILES): Cc1cnc(Nc2cccc(C#N)c2)nc1Nc1ccc2oc(=O)[nH]c2c1
inhibition in vivo at 40 mg/kg [4]: 1%

Structure (SMILES): COc1cc(Nc2ncc(C)c(Nc3ccc4oc(=O)[nH]c4c3)n2)cc(C)c1F.O=S(=O)(O)c1ccccc1
inhibition in vivo at 100 mg/kg (Rattus norvegicus [20]): 98%
AUC [21]: 507 ng·h/mL
inhibition in vivo at 50 mg/kg (Rattus norvegicus [22]): 98%
bioavailability [18]: 37%
inhibition in vivo at 25 mg/kg (Rattus norvegicus [23]): 75%

Structure (SMILES): Cc1cnc(Nc2ccc(NS(C)(=O)=O)cc2)nc1Nc1ccc2oc(=O)[nH]c2c1
inhibition in vivo at 40 mg/kg [4]: 8%
